What was measured:
[1] = 101.33 kPa, Liquid, Vibrating tube method
[2] = xn = mol fraction of the nth substance listed; conditions: 101 kPa, Liquid, Vibrating tube method

CCCCCl [1-chlorobutane]
[1]
Conditions	mass density [kg/m3]
288.15 K	891.747
303.15 K	875.099
313.15 K	863.833

CCCCCl [1-chlorobutane] + CCC(C)=O
mass density [kg/m3], [2]
Conditions	288.15 K	303.15 K	313.15 K
x1 = 0.0603	815.629	799.819	789.16
x1 = 0.102	819.225	803.373	792.657
x1 = 0.1968	827.479	811.507	800.7
x1 = 0.2964	835.868	819.774	808.881
x1 = 0.4017	844.704	828.487	817.514
x1 = 0.4502	848.687	832.432	821.402
x1 = 0.5138	853.847	837.516	826.466
x1 = 0.5467	856.509	840.156	829.081
x1 = 0.6451	864.357	847.919	836.788
x1 = 0.6988	868.609	852.133	840.975
x1 = 0.7994	876.429	859.878	848.676
x1 = 0.8296	878.808	862.217	850.983
x1 = 0.9037	884.435	867.832	856.591
x1 = 0.9336	886.734	870.09	858.856

CCCCCl [1-chlorobutane] + CCCCCCC
mass density [kg/m3], [2]
Conditions	288.15 K	303.15 K	313.15 K
x1 = 0.0407	694.279	681.416	672.687
x1 = 0.0779	699.652	686.682	677.87
x1 = 0.1497	710.416	697.174	688.219
x1 = 0.2169	720.981	707.546	698.49
x1 = 0.2496	726.25	712.73	703.568
x1 = 0.2565	727.4	713.798	704.618
x1 = 0.2999	734.714	720.999	711.752
x1 = 0.363	745.784	731.835	722.416
x1 = 0.4023	752.916	738.839	729.286
x1 = 0.5009	771.635	757.206	747.426
x1 = 0.5052	772.539	758.088	748.294
x1 = 0.5987	791.61	776.768	766.715
x1 = 0.7138	817.052	801.757	791.398
x1 = 0.7493	825.378	809.928	799.44
x1 = 0.8009	837.92	822.176	811.608
x1 = 0.8875	860.284	844.077	833.14
x1 = 0.9476	876.694	860.27	849.181

CCC(C)=O [butanone]
[1]
Conditions	mass density [kg/m3]
288.15 K	810.328
303.15 K	794.629
313.15 K	784.008

CCC(C)=O [butanone] + CCCCCCC
mass density [kg/m3], [2]
Conditions	288.15 K	303.15 K	313.15 K
x2 = 0.0488	799.693	784.166	773.658
x2 = 0.0875	791.829	776.433	766.011
x2 = 0.1976	771.92	756.87	746.674
x2 = 0.2409	764.837	749.92	739.808
x2 = 0.2995	755.954	741.212	731.216
x2 = 0.3726	745.725	731.183	721.184
x2 = 0.444	736.645	722.313	712.588
x2 = 0.4708	733.346	719.166	709.492
x2 = 0.5132	728.532	714.398	704.806
x2 = 0.5941	719.999	706.083	696.646
x2 = 0.7024	709.67	696.076	686.851
x2 = 0.7471	705.937	692.464	683.324
x2 = 0.8016	701.621	688.317	679.294
x2 = 0.8341	699.194	686.007	677.044
x2 = 0.896	694.863	681.831	672.997
x2 = 0.9545	691.133	678.282	669.575

CCCCCCC [heptane]
[1]
Conditions	mass density [kg/m3]
288.15 K	688.588
303.15 K	675.838
313.15 K	665.838

CCCC(C)=O [pentan-2-one]
[1]
Conditions	mass density [kg/m3]
288.15 K	811.491
303.15 K	796.955
313.15 K	787.16

CCCC(C)=O [pentan-2-one] + CCCCCCC
mass density [kg/m3], [2]
Conditions	288.15 K	303.15 K	313.15 K
x2 = 0.0562	801.549	787.145	777.44
x2 = 0.1047	793.314	778.964	769.309
x2 = 0.1946	778.848	764.618	755.031
x2 = 0.2463	770.971	756.828	747.271
x2 = 0.3006	763.126	748.98	739.521
x2 = 0.312	761.486	747.38	737.93
x2 = 0.3664	754.046	740.019	730.578
x2 = 0.4233	746.601	732.618	723.231
x2 = 0.4921	738.067	724.274	714.996
x2 = 0.5566	730.511	716.874	707.632
x2 = 0.6001	725.625	712.061	702.877
x2 = 0.7003	715.045	701.616	692.572
x2 = 0.7526	709.893	696.524	687.536
x2 = 0.8233	703.177	689.947	681.074
x2 = 0.8918	697.119	684.045	675.297
x2 = 0.95	692.408	679.462	670.763

CCCC(C)=O [pentan-2-one] + CCCCCl
mass density [kg/m3], [2]
Conditions	288.15 K	303.15 K	313.15 K
x2 = 0.0725	816.977	802.287	792.387
x2 = 0.1054	819.501	804.742	794.796
x2 = 0.1321	821.521	806.72	796.726
x2 = 0.2299	829.083	814.071	803.941
x2 = 0.2994	834.489	819.331	809.089
x2 = 0.3515	838.598	823.323	813
x2 = 0.4369	845.4	829.942	819.494
x2 = 0.493	849.874	834.295	823.772
x2 = 0.5816	857.018	841.242	830.585
x2 = 0.6518	862.707	846.788	836.036
x2 = 0.6948	866.208	850.202	839.378
x2 = 0.749	870.664	854.538	843.633
x2 = 0.8055	875.345	859.097	848.116
x2 = 0.8359	877.911	861.609	850.574
x2 = 0.8866	882.185	865.757	854.665
x2 = 0.9145	884.566	868	856.9

— the NIST ThermoML archive (doi:10.1016/j.tca.2012.04.001)
